The values below are quoted from earlier work in patent publication US20100015174A1, “METHOD TO CONTROL DENGUE VIRUSES IN HUMANS BY PICOLINIC ACID AND DERIVATIVES THEREOF” (priority 2008, published 2010).

For data set [1], the system named is human aortic endothelial cells. The following applies: cited from earlier work.
Data set [2] has as its system J2 retrovirus. The following applies: GG2EE transformed macrophages; cited from earlier work.

Take `O=C(O)c1cccnc1` [Niacin, Nicotinic acid]: in data set [1], the “change of reactive oxygen species (ROS)” value is recorded as over 50%, the “change of vascular adhesion molecules (VCAM-I)” value is 80% and the “increase of NAD(P)H levels” value was 54%.

Turning to IFN-gamma: type II (immune) interferon, the J2 retrovirus expression result in data set [2] is listed as “not affected”.
